The source of these data is ChEMBL document CHEMBL1201862, “PubChem BioAssay data set” (2004).

Each structure is given as a SMILES string.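 Briefly, cells in 96-well plates were exposed to five compound concentrations for 48 h, and endpoints were estimated by linear interpolation. Here, GI50 denotes the concentration required for 50% inhibition of growth.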 Active and inactive are the calls of the source. Rule as the data show it: active = GI50 up to about 1.1 µM and inactive = higher.

Among the test systems are ACHN; SF-268; CAKI-1; IGROV-1; PC-3; A549; MCF7; A498; HL-60; HCT-116; SNB-75; SK-OV-3; OVCAR-4; OVCAR-3; SNB-19; DU-145; SF-295; UACC-257; SR; T47D.
Common to all, as to experiment: NCI-60 cell line screen, 48 h

As for `CC[C@@]1(O)C(=O)OCc2c1cc1n(c2=O)Cc2cc3c(NC(=O)CN)cccc3nc2-1`, the GI50 in the assay on ACHN is 0.0521 µM (active); in the assay on SF-268 it was < 0.024 µM (active); with CAKI-1, < 0.01 µM (active); in the assay with IGROV-1, 3.42 µM (inactive); with PC-3, 4.92 µM (inactive); in the assay on A549, 0.766 µM (active). In addition, the GI50 with MCF7 was 0.0466 µM (active); in the assay on A498, 0.481 µM (active); in the assay with HL-60 it was < 0.0362 µM (active); in the assay on HCT-116, 0.441 µM (active); in the assay with SNB-75, 0.0733 µM (active); with SK-OV-3, 0.13 µM (active). For the same molecule, the GI50 in the assay with OVCAR-4 is 4.51 µM (inactive); with OVCAR-3 it was 2.17 µM (inactive); in the assay on SNB-19, 0.154 µM (active); in the assay on DU-145 it was 0.065 µM (active); in the assay with SF-295, 0.115 µM (active); with UACC-257 it was 1.43 µM (inactive). Further, the GI50 is < 0.01 µM (active) with SR and < 0.0236 µM (active) in the assay with T47D.

Take `c1ccc(NN(Cc2cnccn2)c2ccccc2)cc1`: the GI50 in the assay on ACHN is > 100 µM (inactive); with SF-268, > 100 µM (inactive); with CAKI-1 it was > 100 µM (inactive); in the assay with IGROV-1, 83.2 µM (inactive); in the assay with PC-3 it was 65.8 µM (inactive); in the assay with A549, 42.2 µM (inactive). Besides, the GI50 in the assay with MCF7 is 44.9 µM (inactive); in the assay with A498, 28.8 µM (inactive); in the assay on HL-60, 67.5 µM (inactive); in the assay on HCT-116, 60.5 µM (inactive); with SNB-75, > 100 µM (inactive); with SK-OV-3, > 100 µM (inactive). The GI50 in the assay with OVCAR-4 is 63 µM (inactive); in the assay on OVCAR-3, 63.4 µM (inactive); with SNB-19, > 100 µM (inactive); in the assay on DU-145 it was > 100 µM (inactive); in the assay on SF-295, 73.8 µM (inactive); with UACC-257, 51.6 µM (inactive). Moreover, the values for the GI50 in the assay with SR and in the assay with T47D were 61.9 µM (inactive) and 68.4 µM (inactive), respectively.

On to `CN(C)c1ccc(/C=C/c2cc[n+](C)c3ccccc23)cc1`, for which the GI50 with ACHN is 6.43 µM (inactive); in the assay with SF-268, 6.1 µM (inactive); in the assay on CAKI-1, 2.79 µM (inactive); in the assay with IGROV-1, 5.16 µM (inactive); in the assay with PC-3, 1.73 µM (inactive); with A549, 3.86 µM (inactive). Also, the GI50 was 2.29 µM (inactive) in the assay on MCF7; 15.1 µM (inactive) with A498; 0.748 µM (active) in the assay on HL-60; 1.58 µM (inactive) with HCT-116; 3.45 µM (inactive) with SNB-75; 5.81 µM (inactive) in the assay with SK-OV-3. Besides, the GI50 was 5.05 µM (inactive) in the assay on OVCAR-4; 1.77 µM (inactive) in the assay on OVCAR-3; 2.34 µM (inactive) in the assay on SNB-19; 5.6 µM (inactive) in the assay on DU-145; 3.84 µM (inactive) in the assay on SF-295; 1.2 µM (inactive) in the assay on UACC-257. Besides, the figures for the GI50 with SR and with T47D were 0.698 µM (active) and 0.652 µM (active), respectively.

For `Cc1ccc2c(=O)cc(-c3ccc(-c4ccccc4)s3)[nH]c2n1`, the GI50 in the assay on ACHN was > 100 µM (inactive); with SF-268, > 63 µM (inactive); in the assay with CAKI-1, 45 µM (inactive); in the assay with IGROV-1 it was 34.9 µM (inactive); in the assay with PC-3, 6.03 µM (inactive); with A549, 58.6 µM (inactive). In addition, the GI50 was 3.27 µM (inactive) in the assay with MCF7; 14.2 µM (inactive) in the assay on A498; > 23.6 µM (inactive) in the assay on HL-60; 25.6 µM (inactive) in the assay with HCT-116; 72.4 µM (inactive) in the assay with SNB-75; 44.5 µM (inactive) in the assay with SK-OV-3. Moreover, the GI50 is 38.5 µM (inactive) with OVCAR-4; 24.8 µM (inactive) in the assay on OVCAR-3; 70.1 µM (inactive) in the assay on SNB-19; > 100 µM (inactive) with DU-145; > 28.8 µM (inactive) in the assay on SF-295; 8.47 µM (inactive) with UACC-257. Besides, the GI50 in the assay on SR is 2.43 µM (inactive); in the assay on T47D it was > 76.7 µM (inactive).

Regarding `Cc1cc(-c2nc3ccc(F)cc3s2)ccc1NC(=O)C(N)CCCCN` (stereo not given), the GI50 in the assay with ACHN is 12.7 µM (inactive); in the assay with SF-268, 6.7 µM (inactive); in the assay on CAKI-1 it was 9.64 µM (inactive); in the assay on IGROV-1 it was 0.617 µM (active); with PC-3, 9.53 µM (inactive); in the assay with A549, 2.64 µM (inactive). For the same molecule, the GI50 in the assay with MCF7 is 0.0184 µM (active); in the assay with A498 it was 11 µM (inactive); in the assay on HL-60 it was 2.9 µM (inactive); in the assay with HCT-116 it was 3.71 µM (inactive); in the assay with SNB-75 it was 4.83 µM (inactive); with SK-OV-3, 13.3 µM (inactive). Besides, the GI50 in the assay on OVCAR-4 was 8.28 µM (inactive); in the assay with OVCAR-3, 7.83 µM (inactive); with SNB-19 it was 10.2 µM (inactive); with DU-145 it was 12.3 µM (inactive); in the assay with SF-295 it was 6.93 µM (inactive); in the assay on UACC-257, 12.8 µM (inactive). The figures for the GI50 in the assay with SR and in the assay with T47D were 1.96 µM (inactive) and 0.027 µM (active), respectively.

Consider `CC1(C)CCCCCCCCCC(C)(CCCCCCCCCCCCO)C1=O` (stereo not given), for which the GI50 with ACHN is 15 µM (inactive); in the assay with SF-268, 17.3 µM (inactive); in the assay on CAKI-1 it was 20.7 µM (inactive); in the assay with IGROV-1 it was 19.1 µM (inactive); in the assay with PC-3 it was 17.4 µM (inactive); in the assay on A549 it was 16.1 µM (inactive). Moreover, the GI50 in the assay with MCF7 was 16.8 µM (inactive); with A498, 18.7 µM (inactive); in the assay on HL-60, 15.7 µM (inactive); in the assay with HCT-116 it was 17.7 µM (inactive); in the assay on SNB-75, 16.1 µM (inactive); in the assay with SK-OV-3, 18.8 µM (inactive). In addition, the GI50 was 17.1 µM (inactive) in the assay on OVCAR-4; 15.6 µM (inactive) with OVCAR-3; 13 µM (inactive) in the assay with SNB-19; 17.7 µM (inactive) in the assay on DU-145; 16.2 µM (inactive) with SF-295; 16.2 µM (inactive) in the assay on UACC-257. Moreover, the GI50 is 55.3 µM (inactive) in the assay with SR and 16.8 µM (inactive) with T47D.

On to `COCn1cnc2c(=O)n(-c3ccc(C)cc3)c(=S)n(-c3ccc(C)cc3)c21`, for which the GI50 in the assay on ACHN, in the assay on SF-268, in the assay on CAKI-1, in the assay with IGROV-1, in the assay on PC-3 and in the assay with A549 was > 100 µM (inactive) in each case. Besides, the GI50 with MCF7 is > 100 µM (inactive); in the assay on A498 it was > 100 µM (inactive); with HL-60, > 100 µM (inactive); in the assay with HCT-116, > 100 µM (inactive); with SNB-75, 6.98 µM (inactive); with SK-OV-3, > 100 µM (inactive). Moreover, the GI50 in the assay with OVCAR-4, in the assay on OVCAR-3, in the assay with SNB-19, in the assay with DU-145, in the assay with SF-295 and with UACC-257 was > 100 µM (inactive) in each case. In addition, the GI50 in the assay with SR and with T47D was > 100 µM (inactive) throughout.

In the case of `Cc1ccc2c(O)c3c(cc2c1)C(=O)c1c2c(cc(O)c1C3=O)C1(C)OC(O2)C(O)C(N(C)C)C1O` (stereo not given), the GI50 with ACHN is 0.605 µM (active); in the assay on SF-268, 3.65 µM (inactive); with CAKI-1, 0.794 µM (active); with IGROV-1 it was 0.912 µM (active); in the assay on PC-3, 1.05 µM (active); with A549, 0.719 µM (active). Also, the GI50 is 0.287 µM (active) with MCF7; 1.28 µM (inactive) in the assay with A498; 0.155 µM (active) in the assay on HL-60; 0.296 µM (active) in the assay on HCT-116; 1.04 µM (active) in the assay with SNB-75; 1.09 µM (active) in the assay with SK-OV-3. Moreover, the GI50 is 1.56 µM (inactive) in the assay with OVCAR-4; 0.794 µM (active) in the assay with OVCAR-3; 1.17 µM (inactive) in the assay on SNB-19; 0.767 µM (active) with DU-145; 1.09 µM (active) with SF-295; 1.51 µM (inactive) in the assay on UACC-257. For the same molecule, the GI50 in the assay with SR is 0.0452 µM (active); in the assay on T47D, 0.656 µM (active).

With `COC(=O)[C@@]12CSC[C@]1(C(=O)OC)N[C@@H](c1ccccc1O)C2`, the GI50 with ACHN, with SF-268, in the assay with CAKI-1, in the assay on IGROV-1, in the assay on PC-3 and in the assay with A549 was > 100 µM (inactive) in each case. The GI50 with MCF7, in the assay with A498, in the assay with HL-60, in the assay on HCT-116, in the assay with SNB-75 and with SK-OV-3 was > 100 µM (inactive) in each case. In addition, the GI50 in the assay with OVCAR-4, with OVCAR-3, with SNB-19, in the assay on DU-145, in the assay with SF-295 and in the assay with UACC-257 was > 100 µM (inactive) throughout. Besides, the GI50 in the assay with SR and in the assay on T47D was > 100 µM (inactive) throughout.

`CSc1c(C#N)c(N)nc2c(/N=N\c3ccc(Br)cc3)c(N)nn12`: the GI50 is 7 µM (inactive) with ACHN; 5.82 µM (inactive) in the assay on SF-268; 12.6 µM (inactive) in the assay on CAKI-1; 3.01 µM (inactive) in the assay on IGROV-1; 8.3 µM (inactive) in the assay on PC-3; 8.99 µM (inactive) in the assay on A549. For the same molecule, the GI50 with MCF7 was 3.16 µM (inactive); in the assay on A498, 24 µM (inactive); in the assay with HL-60 it was 2.82 µM (inactive); in the assay with HCT-116, 6.34 µM (inactive); in the assay with SNB-75, 10.6 µM (inactive); with SK-OV-3, 21.2 µM (inactive). Besides, the GI50 with OVCAR-4 was 7.21 µM (inactive); with OVCAR-3, 2.95 µM (inactive); in the assay on SNB-19, 28.4 µM (inactive); with DU-145, 6.14 µM (inactive); in the assay with SF-295, 8.63 µM (inactive); in the assay with UACC-257, 8.05 µM (inactive). The GI50 with SR is 2.55 µM (inactive); with T47D, 2 µM (inactive).
